The target of assay [1] is T1, Mannose-6-phosphate isomerase (Homo sapiens, UniProt P34949).
T1 sequence (P34949 whole entry): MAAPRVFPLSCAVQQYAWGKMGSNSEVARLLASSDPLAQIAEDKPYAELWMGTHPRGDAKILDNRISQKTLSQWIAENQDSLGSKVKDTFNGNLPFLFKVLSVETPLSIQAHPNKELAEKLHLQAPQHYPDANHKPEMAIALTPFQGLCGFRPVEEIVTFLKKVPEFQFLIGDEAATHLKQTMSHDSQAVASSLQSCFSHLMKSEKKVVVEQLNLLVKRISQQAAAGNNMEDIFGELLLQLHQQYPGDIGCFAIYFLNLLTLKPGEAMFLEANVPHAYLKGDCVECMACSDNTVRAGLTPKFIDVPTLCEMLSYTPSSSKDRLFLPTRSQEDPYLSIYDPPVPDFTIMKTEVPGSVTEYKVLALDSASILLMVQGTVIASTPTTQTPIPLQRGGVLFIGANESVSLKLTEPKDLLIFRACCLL
Description: MPI inhibition at elevated mannose 6-phosphate – biochemical, fluorescence intensity, high mannose 6-phosphate, primary screen (AID 1220).

Assay [2] concerns the target Cell division cycle 7-related protein kinase (Homo sapiens, UniProt O00311). The format is functional.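 Note: value obtained from a kinome-wide kinase panel.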
The target of assay [3] is Casein kinase II subunit alpha (Homo sapiens, UniProt P68400). The format is functional.
Assay [4] deals with Serine/threonine-protein kinase PAK 1 (Homo sapiens, UniProt Q13153). The format is functional.
Assay [5] deals with Serine/threonine-protein kinase TAO1 (Homo sapiens, UniProt Q7L7X3). The format is functional.
Assay [6] addresses Homeodomain-interacting protein kinase 2 (Homo sapiens, UniProt Q9H2X6). The format is functional.
Assay [7] addresses Mitogen-activated protein kinase 13 (Homo sapiens, UniProt O15264). The format is functional.
Assay [8] has as its target Proto-oncogene tyrosine-protein kinase Src (Homo sapiens, UniProt P12931). The format is functional.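 Note: SRC entry within a kinome-wide kinase profiling panel.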
For assay [9], the target named is Tyrosine-protein kinase Srms (Homo sapiens, UniProt Q9H3Y6). The format is functional.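 Note: SRMS measured as one member of a kinome-wide kinase profiling panel.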
Assay [10] concerns the target Receptor tyrosine-protein kinase erbB-2 (Homo sapiens, UniProt P04626). Kind of assay: Navigating the Kinome. Panel member name: ERBB2. The format is functional.
In assay [11] the target is Tyrosine-protein kinase ABL1 (Homo sapiens, UniProt P00519). The format is functional.
Another assay addresses Ephrin type-A receptor 2 (Homo sapiens, UniProt P29317). The format is functional.
Assay [12] deals with Mitogen-activated protein kinase 1 (Homo sapiens, UniProt P28482). The format is functional.
Assay [13] addresses Cyclin-dependent kinase 1 (Homo sapiens, UniProt P06493). The format is functional.
Assay [14] has as its target cAMP-dependent protein kinase catalytic subunit alpha (Homo sapiens, UniProt P17612). The format is functional.
Assay [15] deals with Mitogen-activated protein kinase 14 (Homo sapiens, UniProt Q16539). The format is functional.
For the next assay, the target named is T2, Caspase-7 (Homo sapiens, UniProt P55210).
T2 sequence (P55210 whole entry): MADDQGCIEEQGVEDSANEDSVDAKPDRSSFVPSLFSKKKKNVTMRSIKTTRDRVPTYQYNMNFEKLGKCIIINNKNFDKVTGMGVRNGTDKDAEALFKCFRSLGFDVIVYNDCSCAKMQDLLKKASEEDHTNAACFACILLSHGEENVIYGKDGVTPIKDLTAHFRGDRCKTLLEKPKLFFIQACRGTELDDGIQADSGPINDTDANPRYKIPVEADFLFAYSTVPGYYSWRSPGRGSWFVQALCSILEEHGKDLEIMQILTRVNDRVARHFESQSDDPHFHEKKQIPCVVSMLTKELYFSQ
Kind of assay: activation of caspase-7 zymogen – biochemical, absorbance, counter-screen for procaspase-3 activator project, dose response (AID 489013).

For assay [16], the target named is T3, Microphthalmia-associated transcription factor (Homo sapiens, UniProt O75030).
T3 sequence (O75030 whole entry): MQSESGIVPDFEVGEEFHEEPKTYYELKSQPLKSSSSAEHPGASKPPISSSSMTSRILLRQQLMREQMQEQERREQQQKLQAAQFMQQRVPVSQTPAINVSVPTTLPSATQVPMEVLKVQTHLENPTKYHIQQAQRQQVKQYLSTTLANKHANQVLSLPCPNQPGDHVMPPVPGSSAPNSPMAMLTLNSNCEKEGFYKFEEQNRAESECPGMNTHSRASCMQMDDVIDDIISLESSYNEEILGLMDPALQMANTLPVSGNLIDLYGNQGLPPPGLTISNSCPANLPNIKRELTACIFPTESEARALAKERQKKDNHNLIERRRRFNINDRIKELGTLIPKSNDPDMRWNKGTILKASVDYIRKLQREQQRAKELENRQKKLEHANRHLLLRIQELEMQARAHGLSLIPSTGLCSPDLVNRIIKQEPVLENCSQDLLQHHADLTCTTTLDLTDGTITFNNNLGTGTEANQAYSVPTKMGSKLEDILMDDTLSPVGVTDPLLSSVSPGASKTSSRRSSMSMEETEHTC
Description: reducers of TRPM1 reporter luminescence, concentration series – cell-based, SK-MEL-5, cherry-picked, set 3, MITF inhibitor project, dose response (AID 493073).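 Note: SK-MEL-5 melanoma cells with luciferase driven by the MITF target TRPM1 promoter.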 The format is functional.

This is an account of results in ChEMBL document CHEMBL1201862, “PubChem BioAssay data set” (2004).

Active and inactive are the calls of the source.

Sequence of Homeodomain-interacting protein kinase 2 (Q9H2X6 whole entry): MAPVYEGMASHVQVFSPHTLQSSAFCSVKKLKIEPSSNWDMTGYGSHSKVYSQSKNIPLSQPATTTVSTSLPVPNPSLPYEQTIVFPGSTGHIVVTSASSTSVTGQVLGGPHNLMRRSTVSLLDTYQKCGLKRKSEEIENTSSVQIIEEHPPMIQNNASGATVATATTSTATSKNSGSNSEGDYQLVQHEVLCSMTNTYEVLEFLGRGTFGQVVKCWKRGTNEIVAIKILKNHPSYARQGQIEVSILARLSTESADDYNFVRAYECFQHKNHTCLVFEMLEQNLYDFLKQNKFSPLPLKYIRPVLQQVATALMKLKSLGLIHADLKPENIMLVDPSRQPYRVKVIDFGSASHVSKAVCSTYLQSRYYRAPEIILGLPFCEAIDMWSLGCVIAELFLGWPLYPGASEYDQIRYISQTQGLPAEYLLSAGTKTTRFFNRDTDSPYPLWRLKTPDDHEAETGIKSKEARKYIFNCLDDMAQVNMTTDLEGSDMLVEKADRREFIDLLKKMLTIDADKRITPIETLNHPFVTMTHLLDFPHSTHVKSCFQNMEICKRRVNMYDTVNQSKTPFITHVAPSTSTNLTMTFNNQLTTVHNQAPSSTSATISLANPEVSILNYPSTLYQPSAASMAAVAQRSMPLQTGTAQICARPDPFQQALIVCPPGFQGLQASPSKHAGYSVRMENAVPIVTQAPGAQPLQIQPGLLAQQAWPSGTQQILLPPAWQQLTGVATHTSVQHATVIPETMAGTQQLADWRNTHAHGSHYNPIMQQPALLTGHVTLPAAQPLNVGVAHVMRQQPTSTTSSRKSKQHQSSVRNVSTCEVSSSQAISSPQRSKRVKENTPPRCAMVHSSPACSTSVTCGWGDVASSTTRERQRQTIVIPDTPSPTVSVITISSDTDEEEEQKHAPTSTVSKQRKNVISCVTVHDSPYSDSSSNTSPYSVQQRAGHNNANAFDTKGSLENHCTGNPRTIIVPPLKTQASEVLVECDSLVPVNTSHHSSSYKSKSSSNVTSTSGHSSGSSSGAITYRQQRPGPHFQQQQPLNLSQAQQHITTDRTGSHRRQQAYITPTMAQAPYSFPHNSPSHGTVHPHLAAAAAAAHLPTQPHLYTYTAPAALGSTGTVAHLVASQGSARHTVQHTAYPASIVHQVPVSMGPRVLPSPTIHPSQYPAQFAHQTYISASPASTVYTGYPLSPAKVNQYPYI
Sequence of Tyrosine-protein kinase ABL1 (P00519 whole entry): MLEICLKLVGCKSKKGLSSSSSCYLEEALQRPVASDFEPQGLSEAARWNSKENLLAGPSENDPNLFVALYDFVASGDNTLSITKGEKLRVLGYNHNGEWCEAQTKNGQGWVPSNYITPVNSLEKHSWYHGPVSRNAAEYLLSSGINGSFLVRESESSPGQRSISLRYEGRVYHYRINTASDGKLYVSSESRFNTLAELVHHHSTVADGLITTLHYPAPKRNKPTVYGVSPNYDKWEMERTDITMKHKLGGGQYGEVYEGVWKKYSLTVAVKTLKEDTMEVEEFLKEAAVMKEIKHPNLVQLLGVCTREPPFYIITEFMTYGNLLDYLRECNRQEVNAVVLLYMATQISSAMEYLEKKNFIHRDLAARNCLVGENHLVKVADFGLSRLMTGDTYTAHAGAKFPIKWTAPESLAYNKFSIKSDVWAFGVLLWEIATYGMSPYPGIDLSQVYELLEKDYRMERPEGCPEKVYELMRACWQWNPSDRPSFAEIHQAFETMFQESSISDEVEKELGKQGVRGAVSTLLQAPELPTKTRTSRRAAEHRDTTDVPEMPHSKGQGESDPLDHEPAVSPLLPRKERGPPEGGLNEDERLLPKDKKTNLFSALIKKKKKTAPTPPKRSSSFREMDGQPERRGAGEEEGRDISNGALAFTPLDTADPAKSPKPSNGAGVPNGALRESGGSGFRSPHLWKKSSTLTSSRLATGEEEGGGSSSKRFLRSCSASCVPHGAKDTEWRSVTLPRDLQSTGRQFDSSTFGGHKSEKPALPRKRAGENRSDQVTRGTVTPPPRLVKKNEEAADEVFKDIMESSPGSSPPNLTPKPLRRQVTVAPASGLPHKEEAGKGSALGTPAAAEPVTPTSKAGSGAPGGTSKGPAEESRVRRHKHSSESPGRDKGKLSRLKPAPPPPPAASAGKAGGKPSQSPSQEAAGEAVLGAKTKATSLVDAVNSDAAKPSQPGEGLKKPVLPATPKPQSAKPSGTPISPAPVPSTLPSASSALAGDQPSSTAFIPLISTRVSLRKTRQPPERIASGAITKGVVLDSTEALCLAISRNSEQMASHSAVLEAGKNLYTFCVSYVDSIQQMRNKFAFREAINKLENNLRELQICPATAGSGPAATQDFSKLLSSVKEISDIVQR
Sequence of Proto-oncogene tyrosine-protein kinase Src (P12931 2-536 limits assumed): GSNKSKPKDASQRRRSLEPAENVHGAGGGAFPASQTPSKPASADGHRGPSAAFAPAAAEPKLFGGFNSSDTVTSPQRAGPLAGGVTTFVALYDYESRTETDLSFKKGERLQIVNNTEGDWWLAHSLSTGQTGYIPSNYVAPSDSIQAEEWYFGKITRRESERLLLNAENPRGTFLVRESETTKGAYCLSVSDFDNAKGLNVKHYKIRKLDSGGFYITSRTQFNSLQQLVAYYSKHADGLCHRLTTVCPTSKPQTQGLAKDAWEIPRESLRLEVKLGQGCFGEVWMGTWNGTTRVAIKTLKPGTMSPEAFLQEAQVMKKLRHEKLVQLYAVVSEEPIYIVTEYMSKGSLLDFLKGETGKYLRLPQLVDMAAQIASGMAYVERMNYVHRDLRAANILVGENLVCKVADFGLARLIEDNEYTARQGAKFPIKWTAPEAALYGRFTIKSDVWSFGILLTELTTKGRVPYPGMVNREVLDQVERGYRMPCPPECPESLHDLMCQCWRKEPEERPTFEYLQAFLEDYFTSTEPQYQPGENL
Sequence of Tyrosine-protein kinase Srms (Q9H3Y6 whole entry): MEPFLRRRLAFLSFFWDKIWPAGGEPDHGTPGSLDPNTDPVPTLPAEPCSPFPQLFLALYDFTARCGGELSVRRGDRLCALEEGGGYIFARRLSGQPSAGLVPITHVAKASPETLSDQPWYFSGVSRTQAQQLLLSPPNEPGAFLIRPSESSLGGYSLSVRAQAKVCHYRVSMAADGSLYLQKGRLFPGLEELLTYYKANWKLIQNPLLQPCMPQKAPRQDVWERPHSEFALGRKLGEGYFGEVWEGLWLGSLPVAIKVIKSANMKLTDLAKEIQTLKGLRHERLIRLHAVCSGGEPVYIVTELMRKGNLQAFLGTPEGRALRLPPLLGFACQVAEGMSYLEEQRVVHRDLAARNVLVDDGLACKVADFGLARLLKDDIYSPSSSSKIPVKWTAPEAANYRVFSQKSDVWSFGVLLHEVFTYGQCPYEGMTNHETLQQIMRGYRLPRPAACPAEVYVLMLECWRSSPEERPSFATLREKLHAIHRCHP
Sequence of Cyclin-dependent kinase 1 (P06493 whole entry): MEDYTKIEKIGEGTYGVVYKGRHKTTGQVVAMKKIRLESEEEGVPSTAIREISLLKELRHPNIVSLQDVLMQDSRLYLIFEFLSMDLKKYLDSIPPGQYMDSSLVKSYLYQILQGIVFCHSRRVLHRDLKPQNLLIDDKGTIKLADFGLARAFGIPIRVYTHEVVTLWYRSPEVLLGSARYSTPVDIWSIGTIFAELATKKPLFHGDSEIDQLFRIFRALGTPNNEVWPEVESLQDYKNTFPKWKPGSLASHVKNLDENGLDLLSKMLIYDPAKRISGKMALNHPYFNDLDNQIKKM
Sequence of Mitogen-activated protein kinase 13 (O15264 whole entry): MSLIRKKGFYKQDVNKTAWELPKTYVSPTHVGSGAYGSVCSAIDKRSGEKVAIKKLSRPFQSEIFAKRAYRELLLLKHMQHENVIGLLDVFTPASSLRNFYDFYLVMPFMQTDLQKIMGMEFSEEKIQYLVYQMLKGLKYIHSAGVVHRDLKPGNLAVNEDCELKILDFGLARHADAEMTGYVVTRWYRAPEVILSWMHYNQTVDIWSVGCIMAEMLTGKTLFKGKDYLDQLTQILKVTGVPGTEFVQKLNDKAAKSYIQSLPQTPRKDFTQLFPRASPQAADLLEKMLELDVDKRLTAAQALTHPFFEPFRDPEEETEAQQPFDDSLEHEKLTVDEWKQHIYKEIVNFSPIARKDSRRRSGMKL
Sequence of Serine/threonine-protein kinase PAK 1 (Q13153 whole entry): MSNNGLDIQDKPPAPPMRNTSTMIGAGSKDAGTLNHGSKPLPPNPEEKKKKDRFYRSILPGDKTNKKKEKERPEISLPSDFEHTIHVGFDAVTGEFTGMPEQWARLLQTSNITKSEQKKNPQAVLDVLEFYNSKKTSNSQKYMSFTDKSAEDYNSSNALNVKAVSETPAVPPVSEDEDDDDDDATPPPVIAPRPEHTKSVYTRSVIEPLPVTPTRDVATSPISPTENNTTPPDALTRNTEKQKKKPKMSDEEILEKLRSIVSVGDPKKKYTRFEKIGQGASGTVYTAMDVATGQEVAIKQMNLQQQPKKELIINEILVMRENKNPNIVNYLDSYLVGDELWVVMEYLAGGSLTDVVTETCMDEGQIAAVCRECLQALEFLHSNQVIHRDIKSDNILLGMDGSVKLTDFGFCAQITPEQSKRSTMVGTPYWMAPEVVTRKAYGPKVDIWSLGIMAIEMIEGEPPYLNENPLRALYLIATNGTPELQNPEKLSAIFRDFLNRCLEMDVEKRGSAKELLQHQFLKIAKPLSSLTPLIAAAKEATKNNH
Sequence of Mitogen-activated protein kinase 14 (Q16539 whole entry): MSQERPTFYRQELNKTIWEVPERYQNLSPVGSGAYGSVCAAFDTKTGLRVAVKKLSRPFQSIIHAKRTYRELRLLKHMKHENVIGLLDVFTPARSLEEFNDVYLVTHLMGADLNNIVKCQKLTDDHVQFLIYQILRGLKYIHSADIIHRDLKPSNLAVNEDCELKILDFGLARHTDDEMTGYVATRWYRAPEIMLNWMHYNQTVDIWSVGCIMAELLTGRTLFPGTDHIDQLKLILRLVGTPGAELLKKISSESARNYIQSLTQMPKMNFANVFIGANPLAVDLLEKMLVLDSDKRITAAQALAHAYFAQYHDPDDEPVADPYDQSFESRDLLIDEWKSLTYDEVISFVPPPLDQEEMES

In general, IC50 refers to the concentration at which inhibition is half-maximal. On to `CC(C)N(C(=O)Nc1ccc2nsnc2c1)C(C)C`, for which the IC50 in [1] is > 50000 nM (not active).

One may read the Ki as the equilibrium dissociation constant of an inhibitor or competing ligand from its target. For the compound `Clc1cc(-c2c[nH]c3ncccc23)nc(NC2CCCCC2)n1`, the Ki is 0.501 nM (active) in assay [2]; 398 nM (active) in [3]; > 10000 nM (inactive) in assay [4]; > 7940 nM (inactive) in assay [5]; 100 nM (active) in assay [6]; 1260 nM (active) in assay [7]. Further, the Ki was > 2000 nM (inactive) in assay [8]; > 1580 nM (inactive) in assay [9]; > 1580 nM (inactive) in [10]; > 631 nM (inactive) in assay [11]; > 3160 nM (inactive) at Ephrin type-A receptor 2; 398 nM (active) in [12]. The Ki is 31.6 nM (active) in assay [13], 251 nM (active) in assay [14] and > 3980 nM (inactive) in assay [15].

Usually EC50 stands for the concentration at which the effect is half-maximal. Regarding `O=C(N/N=C/c1ccc(O)cc1O)c1ccc(CN2C(=O)c3cccc4cccc2c34)cc1`, the EC50 on Caspase-7 was > 85300 nM (inactive).

As usually defined, the AC50 is the midpoint of the concentration-response curve, whichever way the signal moves. For the compound `CCC(=O)NC(c1ccccc1OC)c1ccc2cccnc2c1O` (stereo not drawn), the AC50 in assay [16] is 6700 nM (active).
